Source: patent US9113629B2, “4-amino-6-(4-substituted-phenyl)-picolinates and 6-amino-2-(4-substituted-phenyl)-pyrimidine-4-carboxylates and their use as herbicides” (DOW AGROSCIENCES LLC, priority 2013, dated 2015)
Like-named read-outs stand apart in the source and are kept apart here.

What was measured:
[1] = test system: Key Broadleaf Weed and Crop Species; assay: Post-emergent Test II herbicidal activity (Table 5); format: in vivo; settings: post-emergence, 336 h, post-emergent, 14 days after application; for pest or weed control at 70 g/ha: 70 g ai/ha; for pest or weed control at 140 g/ha: 140 g ai/ha
Summary of the method: (§1)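 Percent injury, 0 (none) to 100 (complete kill), was judged visually 14 d after spraying young plants at the first or second true leaf stage with compound in an acetone/DMSO aqueous carrier at 187 L/ha. Plants were kept in a greenhouse at 23–29 °C by day.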

[2] = test system: Key Grass and Sedge Weeds as well as Grass Crops; assay: Post-emergent Test II herbicidal activity (Table 6); format: in vivo; settings: post-emergence, 336 h; for pest or weed control at 70 g/ha: application rate 70 g ai/ha; for pest or weed control at 140 g/ha: application rate 140 g ai/ha
Summary of the method: as §1

[3] = ABUTH: velvetleaf (Abutilon theophrasti), read-out: Visual Growth Reduction (%) 14 Days After Application ABUTH
[4] = AMARE: redroot pigweed (Amaranthus retroflexus), read-out: Visual Growth Reduction (%) 14 Days After Application AMARE
[5] = BRSNN: oilseed-rape, canola (Brassica napus), read-out: Visual Growth Reduction (%) 14 Days After Application BRSNN
[6] = CHEAL: lambsquarters (Chenopodium album), read-out: Visual Growth Reduction (%) 14 Days After Application CHEAL
[7] = EPHHL: wild poinsettia (Euphorbia heterophylla), read-out: Visual Growth Reduction (%) 14 Days After Application EPHHL
[8] = HELAN: sunflower (Helianthus annuus), read-out: Visual Growth Reduction (%) 14 Days After Application HELAN
[9] = VIOTR: wild pansy (Viola tricolor), read-out: Visual Growth Reduction (%) 14 Days After Application VIOTR
[10] = CYPES: yellow nutsedge (Cyperus esculentus), read-out: Visual Growth Reduction (%) 14 Days After Application, CYPES
[11] = DIGSA: crabgrass (Digitaria sanguinalis), read-out: Visual Growth Reduction (%) 14 Days After Application, DIGSA
[12] = ECHCG: barnyardgrass (Echinochloa crus-galli), read-out: Visual Growth Reduction (%) 14 Days After Application, ECHCG
[13] = ORYSA: rice (Oryza sativa), read-out: Visual Growth Reduction (%) 14 Days After Application, ORYSA
[14] = SETFA: giant foxtail (Setaria faberi), read-out: Visual Growth Reduction (%) 14 Days After Application, SETFA
[15] = SORVU: grain sorghum (Sorghum vulgare), read-out: Visual Growth Reduction (%) 14 Days After Application, SORVU
[16] = TRZSS (wheat, Triticum aestivum), read-out: Visual Growth Reduction (%) 14 Days After Application, TRZSS
[17] = ZEAMX: maize, corn (Zea mays), read-out: Visual Growth Reduction (%) 14 Days After Application, ZEAMX

COC(=O)c1nc(-c2ccc(C#N)cc2F)c(F)c(N)c1Cl [Compound 44, Methyl 4-amino-3-chloro-6-(4-cyano-2-fluorophenyl)-5-fluoropicolinate]
30 to 44%: pest or weed control at 70 g/ha [1, 3] | pest or weed control at 70 g/ha [2, 10] | pest or weed control at 70 g/ha [2, 16] | pest or weed control at 140 g/ha [2, 16]
75 to 84%: pest or weed control at 70 g/ha [1, 4] | pest or weed control at 70 g/ha [1, 6]
60 to 74%: pest or weed control at 140 g/ha [1, 3]
95 to 100%: pest or weed control at 140 g/ha [1, 4] | pest or weed control at 140 g/ha [1, 7] | pest or weed control at 140 g/ha [1, 8]
85 to 94%: pest or weed control at 140 g/ha [1, 6] | pest or weed control at 70 g/ha [1, 7] | pest or weed control at 70 g/ha [1, 8]
45 to 59%: pest or weed control at 140 g/ha [2, 10]
0 to 29%: pest or weed control at 70 g/ha [1, 5] | pest or weed control at 140 g/ha [1, 5] | pest or weed control at 70 g/ha [1, 9] | pest or weed control at 140 g/ha [1, 9] | pest or weed control at 70 g/ha [2, 11] | pest or weed control at 140 g/ha [2, 11] | pest or weed control at 70 g/ha [2, 12] | pest or weed control at 140 g/ha [2, 12] | pest or weed control at 70 g/ha [2, 13] | pest or weed control at 140 g/ha [2, 13] | pest or weed control at 70 g/ha [2, 14] | pest or weed control at 140 g/ha [2, 14] | pest or weed control at 70 g/ha [2, 15] | pest or weed control at 140 g/ha [2, 15] | pest or weed control at 70 g/ha [2, 17] | pest or weed control at 140 g/ha [2, 17]
